Biological target: T1, CCR2 (Homo sapiens, UniProt P41597)
T1 construct: Membranes were prepared from THP-1 cells; endogenous in cells; host or cells: THP-1 cells (membrane preparation)
T1 sequence (P41597 1-360 isoform P41597-2): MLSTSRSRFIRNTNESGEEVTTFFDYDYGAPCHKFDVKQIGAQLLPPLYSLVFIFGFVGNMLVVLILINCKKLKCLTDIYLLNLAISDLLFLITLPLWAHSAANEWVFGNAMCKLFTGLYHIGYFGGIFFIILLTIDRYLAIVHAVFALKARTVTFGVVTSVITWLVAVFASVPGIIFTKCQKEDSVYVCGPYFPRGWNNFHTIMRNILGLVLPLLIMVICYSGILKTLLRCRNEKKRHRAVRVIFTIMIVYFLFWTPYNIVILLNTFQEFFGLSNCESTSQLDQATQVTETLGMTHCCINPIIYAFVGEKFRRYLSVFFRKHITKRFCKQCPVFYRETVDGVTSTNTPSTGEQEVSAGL
Assay: CCR2 receptor membrane binding assay ([125I]MCP-1, THP-1 cell membranes, SPA beads)
Conditions: for remaining activity at 10 µM: @ 10 μM test compound, THP-1 membranes, read-out: CCR2 % ctrl @ 10 μM; for Ki: dissociation constant hKi, [125I]MCP-1 binding to THP-1 membranes
Procedure, shortened: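 hKi was derived by iterative law-of-mass-action fitting of scintillation counts read at 8 h. Compound (1% DMSO final) competed with ca. 25000 cpm [125I]MCP-1 for THP-1 membranes bound to WGA-PVT beads. Buffer: 25 mM HEPES pH 7.2, 5 mM MgCl2, 0.5 mM CaCl2, 0.2% BSA.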

| SMILES | remaining activity at 10 µM [%] | Ki [nM] |
| --- | --- | --- |
| CCc1c(NCc2cccc(-c3ccccc3)c2)ncnc1C(=O)N1CCC(N2CCC(O)CC2)CC1 [Example 282] | 39 | 1530 |
| Cc1c(NCc2cccc(-c3ccccc3)c2)cccc1C(=O)N1CCC(N2CCC(O)CC2)CC1 [Example 283] | 48 | 4420 |
| Cc1c(NCCc2ccc(Cl)c(Cl)c2)ncnc1C(=O)N1CCC(N2CCN(S(C)(=O)=O)CC2)CC1 [Example 285] | 35 | 1310 |
| Cc1c(NCc2ccc(C(C)(C)C)cc2)ncnc1C(=O)N1CCCN(C2CCOCC2)CC1 [Example 288] | 13 | 738 |
| Cc1c(C(=O)N2CCC(N3CCC(N(C)S(C)(=O)=O)CC3)CC2)ncnc1-c1ccc(C(C)(C)C)cc1 [Example 289] | 34 | 1670 |
| Cc1c(Oc2ccc(Cl)cc2)ncnc1C(=O)N1CCC(N2CCC(N(C)S(C)(=O)=O)CC2)CC1 [Example 290] | 28 | 1600 |
| Cc1c(Oc2ccc(C(C)(C)C)cc2)ncnc1C(=O)N1CCC(N2CCC(N(C)S(C)(=O)=O)CC2)CC1 [Example 291] | 32 | 3120 |
| Cc1c(OCc2ccc(C#N)cc2)ncnc1C(=O)N1CCC(N2CCC(N(C)S(C)(=O)=O)CC2)CC1 [Example 293] | 27 | 717 |
| Cc1c(OCC2CCN(c3ccccc3)C2)ncnc1C(=O)N1CCC(N2CCC(N(C)S(C)(=O)=O)CC2)CC1 (stereo not drawn) [Example 295] | 0 | 140 |
| Cc1c(OCc2ccc(C(C)(C)C)cc2)ncnc1C(=O)N1CCC(N2CCC(N(C)S(C)(=O)=O)CC2)CC1 [Example 296] | 3 | 69 |
| Cc1c(OCc2ccc(C(C)(C)C)cc2)ncnc1C(=O)N1CCC(N2CCC(NS(C)(=O)=O)CC2)CC1 [Example 299] | 6 | 70 |
| COc1nc(OCc2ccc(C(C)(C)C)cc2)c(C)c(C(=O)N2CCC(N3CCC(N(C)S(C)(=O)=O)CC3)CC2)n1 [Example 301] | – | 22 |
| COc1nc(OCC2CCCC(c3ccccc3)C2)c(C)c(C(=O)N2CCC(N3CCC(N(C)S(C)(=O)=O)CC3)CC2)n1 (stereo not drawn) [Example 302] | – | 32 |

More lines, in order of falling Ki, values ahead:

| remaining activity at 10 µM [%] | Ki [nM] | SMILES |
| --- | --- | --- |
| 33 | 2550 | Cc1c(NCc2ccc(C(C)(C)C)cc2)ncnc1C(=O)N1CCCN(C(C)C)CC1 [Example 287] |
| 42 | 1510 | Cc1c(NCCc2ccc(Cl)c(Cl)c2)ncnc1C(=O)N1CCC(N2CCN(C(=O)C(C)C)CC2)CC1 [Example 284] |
| 32 | 1440 | CCc1c(NCCc2ccc(Cl)c(Cl)c2)ncnc1C(=O)N1CCC(N2CCC(O)CC2)CC1 [Example 280] |
| 24 | 1010 | CCc1c(NCCc2ccc(Cl)c(Cl)c2)ncnc1C(=O)N1CCC(N2CCOCC2)CC1 [Example 281] |
| 19 | 965 | Cc1c(NCc2ccc(C(C)(C)C)cc2)ncnc1C(=O)N1CCCN(C2CCCC2)CC1 [Example 286] |
| 17 | 599 | Cc1c(OCc2ccc(C(C)(C)C)cc2)ncnc1C(=O)N1CCC(N2CCOCC2)CC1 [Example 298] |
| 16 | 230 | Cc1ccc(COc2ncnc(C(=O)N3CCC(N4CCC(N(C)S(C)(=O)=O)CC4)CC3)c2C)cc1F [Example 294] |
| 15 | 136 | Cc1cc(COc2ncnc(C(=O)N3CCC(N4CCC(N(C)S(C)(=O)=O)CC4)CC3)c2C)ccc1Cl [Example 292] |
| 8 | 136 | CNC(=O)C1CCN(C2CCN(C(=O)c3ncnc(OCc4ccc(C(C)(C)C)cc4)c3C)CC2)CC1 [Example 300] |
